US10562912B2 (C&C Research Laboratories, priority 2013, dated 2020)

What was measured:
Type in all cases: cell-based
STAT3 = target: T1, STAT3 (Homo sapiens, UniProt P40763); assay: STAT3 reporter gene assay (luciferase), LNCaP stable cell line (pSTAT3-TA-luc), IL-6 stimulation
T1 construct: plasmid pSTAT3-TA-luc), which contains a stably operating STAT3 promoter; endogenous in cells
Outline: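 LNCaP cells stably carrying pSTAT3-TA-luc, in RPMI1640 with 3% DCC-FBS, were treated with compound and then stimulated with 10 ng/mL IL-6 for 24–48 h at 37 °C. Luciferase activity was measured in lysates. A parallel plate measured viability by CellTiter-Glo, with stimulated 0.1% DMSO wells as the positive control.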

MDA-MB-231 = assay: Cell growth inhibition assay, breast cancer cell line MDA-MB-231; details: Homo sapiens; MDA-MB-231 breast cancer cell line, 5,000 cells/well
Protocol: The inhibitory effects of the compounds of the present invention against the growth of cancer cells were evaluated as shown below. The cancer cell lines including stomach cancer cell line (AGS), breast cancer cell lines (MDA-MB-231, MDA-MB-468, and BT-549), prostate cancer cell lines (LNCaP and DU-145), colon cancer cell line (HCT116), ovarian cancer cell line (SW626), liver cancer cell line (Hep3B), kidney cancer cell line (ACHN), lung cancer cell line (NCI-H23) and blood cancer cell lines (HEL92.1.7 and U266) were cultured under the protocol provided by each supplier. A medium supplemented with 10 ng/mL of IL-6 was used for LNCaP, a prostate cancer cell line, when treated with a drug. Each type of cells to be used in experiments were sub-cultured in a 96-well plate by counting the exact number of cells using Tali™ Image-based Cytometer (Life Technologies). In a 96-well plate, AGS, HCT116, and DU-145 were employed with 3,000 cells/well; NCI-H23, SW626, Hep3B, ACHN, BT-549, MDA-MB-231, HEL92.1.7, and U266 were employed with 5,000 cells/well; and LNCaP and MDA-MB-468 were employed with 10,000 cells/well. The cells were treated with the compounds listed in Examples which were diluted in various concentrations. Upon completion of the compounds treatment, AGS, HCT116, SW626, DU145, NCI-H23, Hep3B, ACHN, BT-549, LNCaP, HEL92.1.7, and U266 cells were cultured at 37° C. under 5% CO2 for from 72 to 96 hours, and MDA-MB-231 and MDA-MB-468 cells were cultured at 37° C. in air for from 72 to 96 hours. Subsequently, the cells were observed under microscope and drug precipitation and particular findings were investigated and recorded. And then, the 96-well plate was placed at room temperature for 30 minutes, added with 20 μL/well of CellTiter-Glo solution (Cat No. G7573, Promega) and shaken for 10 minutes, followed by being subjected to the measurement using PHERAstar™ microplate reader (BMG LABTECH) according to the supplier's general luminometer protocol. Wells where only culture liquid added without cell plating were used as a negative control, whereas wells where culture liquid containing 0.1% DMSO instead of the compounds listed in Examples were used as a positive control.

LNCaP = assay: Cell growth inhibition assay, prostate cancer cell line LNCaP (medium with 10 ng/mL IL-6); details: Homo sapiens, medium supplemented with 10 ng/mL of IL-6, 10,000 cells/well

T1 sequence (P40763 whole entry): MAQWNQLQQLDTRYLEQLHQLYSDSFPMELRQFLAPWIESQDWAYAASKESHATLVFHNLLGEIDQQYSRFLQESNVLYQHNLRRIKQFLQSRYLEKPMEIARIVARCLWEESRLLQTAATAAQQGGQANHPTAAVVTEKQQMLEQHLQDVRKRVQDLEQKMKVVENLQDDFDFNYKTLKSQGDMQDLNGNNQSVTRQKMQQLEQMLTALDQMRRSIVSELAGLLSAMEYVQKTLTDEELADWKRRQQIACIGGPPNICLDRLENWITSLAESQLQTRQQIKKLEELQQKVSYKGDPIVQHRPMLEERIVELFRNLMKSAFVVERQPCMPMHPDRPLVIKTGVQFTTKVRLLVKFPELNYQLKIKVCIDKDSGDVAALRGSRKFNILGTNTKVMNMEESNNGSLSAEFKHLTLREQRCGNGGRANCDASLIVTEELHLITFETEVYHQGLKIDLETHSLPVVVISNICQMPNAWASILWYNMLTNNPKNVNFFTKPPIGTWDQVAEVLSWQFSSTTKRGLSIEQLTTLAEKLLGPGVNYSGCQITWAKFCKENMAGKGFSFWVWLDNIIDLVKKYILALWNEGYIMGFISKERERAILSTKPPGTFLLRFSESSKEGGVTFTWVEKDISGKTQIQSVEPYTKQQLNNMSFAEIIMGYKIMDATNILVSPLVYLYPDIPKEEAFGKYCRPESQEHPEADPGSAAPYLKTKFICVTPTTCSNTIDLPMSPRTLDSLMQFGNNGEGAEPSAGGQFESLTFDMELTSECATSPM

Structure (SMILES) | IC50 (STAT3) [µM] | IC50 (MDA-MB-231) [µM] | IC50 (LNCaP) [µM]
COc1cccc(-c2cc(NC(=O)c3cc4ccc(NS(C)(=O)=O)cc4[nH]3)cc(-c3ccc(F)cc3F)c2)n1 [Example 383, N-(2′,4′-difluoro-5-(6-methoxypyridin-2-yl)-[1,1′-biphenyl]-3-yl)-6-(methylsulfonamido)-1H-indole-2-carboxamide] | 0.09 | 2.33 | 4.3
CNc1cc(NC(=O)c2cc3ccc(NS(C)(=O)=O)cc3[nH]2)cc(-c2ccc(F)cc2F)c1 [Example 373, N-(2′,4′-difluoro-5-(methylamino)-[1,1′-biphenyl]-3-yl)-6-(methylsulfonamido)-1H-indole-2-carboxamide] | 1.5 | 1 | 4.4
O=C(Nc1cccc(-c2ccc(F)cc2F)c1)c1cc2cc(OC(F)(F)F)ccc2[nH]1 [Example 239, N-(2′,4′-difluoro-[1,1′-biphenyl]-3-yl)-5-(trifluoromethoxy)-1H-indole-2-carboxamide] | > 10 | > 10 | 8.3
Cc1c(C(=O)Nc2cc(Br)cc(-c3ccc(F)cc3F)c2)sc2cc(NS(C)(=O)=O)ccc12 [Example 309, N-(5-bromo-2′,4′-difluoro-[1,1′-biphenyl]-3-yl)-3-methyl-6-(methylsulfonamido)benzo[b]thiophene-2-carboxamide] | 1.5 | 1.2 | 5.9
CS(=O)(=O)c1ccc2cc(C(=O)Nc3cc(Br)cc(-c4ccc(F)cc4F)c3)[nH]c2c1 [Example 304, N-(5-bromo-2′,4′-difluoro-[1,1′-biphenyl]-3-yl)-6-(methylsulfonyl)-1H-indole-2-carboxamide] | 4 | 5.3 | > 10
CNS(=O)(=O)Nc1ccc2cc(C(=O)Nc3cccc(C(C)(C)c4ccc(F)cc4)c3)[nH]c2c1 [Example 5, N-(3-(2-(4-fluorophenyl)propan-2-yl)phenyl)-6-((N-methylsulfamoyl)amino)-1H-indole-2-carboxamide] | 1.2 | 1.2 | 4.7
CS(=O)(=O)Nc1ccc2cc(C(=O)Nc3cc(-c4cccs4)cc(-c4ccc(F)cc4F)c3)[nH]c2c1 [Example 354, N-(2′,4′-difluoro-5-(thiophen-2-yl)-[1,1′-biphenyl]-3-yl)-6-(methylsulfonamido)-1H-indole-2-carboxamide] | 0.33 | 0.71 | 5.7
CS(=O)(=O)Nc1ccc2cc(C(=O)Nc3cccc(C(=O)c4ccccc4)c3)[nH]c2c1 [Example 434, N-(3-benzoylphenyl)-6-(methylsulfonamido)-1H-indole-2-carboxamide] | 6.5 | 2.9 | > 10
CS(=O)(=O)Nc1ccc2cc(C(=O)Nc3cc(-c4ccc(F)nc4)cc(-c4ccc(F)cc4F)c3)[nH]c2c1 [Example 349, N-(2′,4′-difluoro-5-(6-fluoropyridin-3-yl)-[1,1′-biphenyl]-3-yl)-6-(methylsulfonamido)-1H-indole-2-carboxamide] | 0.48 | 0.32 | 2.3
COc1cc(NC(=O)c2cc3ccc(NS(C)(=O)=O)cc3[nH]2)cc(C(C)(C)c2cc(OC)cc(OC(F)(F)F)c2)c1 [Example 13, N-(3-methoxy-5-(2-(3-methoxy-5-(trifluoromethoxy)phenyl)propan-2-yl)phenyl)-6-(methylsulfonamido)-1H-indole-2-carboxamide] | 0.22 | 0.03 | 0.48
CC(C)(c1cccc(NC(=O)c2cc3cc(NS(C)(=O)=O)ccc3s2)c1)c1ccc(F)cc1F [Example 27, N-(3-(2-(2,4-difluorophenyl)propan-2-yl)phenyl)-5-(methylsulfonamido)benzo[b]thiophene-2-carboxamide] | 0.08 | 0.033 | 0.67
CC(C)(c1cc(Br)cc(NC(=O)c2cc3cc(NS(C)(=O)=O)ccc3s2)c1)c1cc(OCC(N)=O)ccc1F [Example 44, N-(3-(2-(5-(2-amino-2-oxoethoxy)-2-fluorophenyl)propan-2-yl)-5-bromophenyl)-5-(methylsulfonamido)benzo[b]thiophene-2-carboxamide] | 1.4 | 4 | 5.2
CNC(=O)c1cc(NC(=O)c2cc3ccc(NS(C)(=O)=O)cc3[nH]2)cc(-c2ccc(F)cc2F)c1 [Example 318, N-(2′,4′-difluoro-5-(methylcarbamoyl)-[1,1′-biphenyl]-3-yl)-6-(methylsulfonamido)-1H-indole-2-carboxamide] | 8.1 | > 10 | > 10
COc1cc(NC(=O)c2cc3ccc(NS(C)(=O)=O)cc3[nH]2)cc(-c2ccc(F)cc2F)c1 [Example 314, N-(2′,4′-difluoro-5-methoxy-[1,1′-biphenyl]-3-yl)-6-(methylsulfonamido)-1H-indole-2-carboxamide] | 4.5 | 0.37 | 3.7
COc1cc(NC(=O)c2sc3cc(NS(C)(=O)=O)ccc3c2C)cc(-c2ccc(F)cc2F)c1 [Example 316, N-(2′,4′-difluoro-5-methoxy-[1,1′-biphenyl]-3-yl)-3-methyl-6-(methylsulfonamido)benzo[b]thiophene-2-carboxamide] | 3.6 | 4.6 | 7
COc1cc(OC(F)(F)F)cc(C(C)(C)c2cc(NC(=O)c3cc4cc(NS(C)(=O)=O)ccc4s3)cc(OC(F)F)c2)c1 [Example 41, N-(3-(difluoromethoxy)-5-(2-(3-methoxy-5-(trifluoromethoxy)phenyl)propan-2-yl)phenyl)-5-(methylsulfonamido)benzo[b]thiophene-2-carboxamide] | 0.028 | 0.024 | 0.11
CC(C)(c1ccc(F)cc1)c1cccc(NC(=O)c2sc3cc(NS(C)(=O)=O)ccc3c2Cl)c1 [Example 110, 3-chloro-N-(3-(2-(4-fluorophenyl)propan-2-yl)phenyl)-6-(methylsulfonamido)benzo[b]thiophene-2-carboxamide] | 4.3 | 3.3 | > 10
CCC(CC)(c1cc(NC(=O)c2cc3ccc(NS(C)(=O)=O)cc3[nH]2)cc(OC)c1)c1cc(OC)cc(OC(F)(F)F)c1 [Example 55, N-(3-methoxy-5-(3-(3-methoxy-5-(trifluoromethoxy)phenyl)pentan-3-yl)phenyl)-6-(methylsulfonamido)-1H-indole-2-carboxamide] | 0.16 | 0.081 | 0.54
CS(=O)(=O)Nc1ccc2sc(C(=O)Nc3cccc(C4(c5ccccc5)CC4)c3)cc2c1 [Example 421, 5-(methylsulfonamido)-N-(3-(1-phenylcyclopropyl)phenyl)benzo[b]thiophene-2-carboxamide] | 0.2 | 0.089 | 1.1
CS(=O)(=O)Nc1ccc2cc(C(=O)Nc3cc(-c4ccncc4)cc(-c4ccc(F)cc4F)c3)[nH]c2c1 [Example 356, N-(2′,4′-difluoro-5-(pyridin-4-yl)-[1,1′-biphenyl]-3-yl)-6-(methylsulfonamido)-1H-indole-2-carboxamide] | 3.6 | 3.3 | 9.9
CC(C)(c1cccc(NC(=O)c2cc3cc(NS(C)(=O)=O)ccc3o2)c1)c1ccc(F)cc1F [Example 29, N-(3-(2-(2,4-difluorophenyl)propan-2-yl)phenyl)-5-(methylsulfonamido)benzofuran-2-carboxamide] | 0.53 | 0.47 | 3.8
CS(=O)(=O)Nc1ccc2cc(C(=O)Nc3cc(-c4ccc(F)cc4F)cc(-c4ccc(F)cc4F)c3)[nH]c2c1 [Example 362, 6-(methylsulfonamido)-N-(2,2″,4,4″-tetrafluoro-[1,1′:3′,1″-terphenyl]-5′-yl)-1H-indole-2-carboxamide] | 0.72 | 0.69 | 2.6
CC(C)(c1cc(Br)cc(NC(=O)c2cc3ccc(NS(C)(=O)=O)cc3[nH]2)c1)c1cccc(OCC(N)=O)c1 [Example 18, N-(3-(2-(3-(2-amino-2-oxoethoxy)phenyl)propan-2-yl)-5-bromophenyl)-6-(methylsulfonamido)-1H-indole-2-carboxamide] | 5.4 | 8.7 | 9.6
